How the values were obtained:
barnyardgrass [1] = assay: Test C preemergence; assay type: in vivo, Echinochloa crusgalli; settings: for Barnyardgrass plant response rating: 500 g ai/ha, preemergence, 0 to 100 scale (0 no effect, 100 complete control); for Plant response rating, Barnyardgrass: Preemergence, 125 g ai/ha, 0 to 100 scale, 0 no effect, 100 complete control
Outline: (§1)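 Seeds sown in loam soil–sand blend received a directed preemergence soil spray of test chemical in non-phytotoxic solvent with surfactant; postemergence plants (2–10 cm, one- to two-leaf stage) were sprayed with the same formulation. Greenhouse-held 10 days, then visually rated for injury versus untreated controls, 0 (no effect) to 100 (complete control).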

blackgrass [2] = assay: Test C preemergence; assay type: in vivo, Alopecurus myosuroides; settings: for Blackgrass plant response rating: 500 g ai/ha, preemergence, 0 to 100 scale (0 no effect, 100 complete control); for Plant response rating, Blackgrass: Preemergence, 125 g ai/ha, 0 to 100 scale, 0 no effect, 100 complete control
Outline: as §1

corn [3] = assay: Test C preemergence; assay type: in vivo, Zea mays; settings: for Corn plant response rating: 500 g ai/ha, preemergence, 0 to 100 scale (0 no effect, 100 complete control)
Outline: as §1

green foxtail [4] = assay: Test C preemergence; assay type: in vivo, Setaria viridis; settings: for Foxtail, Green plant response rating: 500 g ai/ha, preemergence, 0 to 100 scale (0 no effect, 100 complete control); for Plant response rating, Foxtail, Green: Preemergence, 125 g ai/ha, 0 to 100 scale, 0 no effect, 100 complete control
Outline: as §1

kochia [5] = assay: Test C preemergence; assay type: in vivo, Bassia scoparia; settings: for Kochia plant response rating: 500 g ai/ha, preemergence, 0 to 100 scale (0 no effect, 100 complete control); for Plant response rating, Kochia: Preemergence, 125 g ai/ha, 0 to 100 scale, 0 no effect, 100 complete control
Outline: as §1

oat, wild [6] = assay: Test C preemergence; assay type: in vivo, Avena fatua; settings: for Oat, Wild plant response rating: 500 g ai/ha, preemergence, 0 to 100 scale (0 no effect, 100 complete control); for Plant response rating, Oat, Wild: Preemergence, 125 g ai/ha, 0 to 100 scale, 0 no effect, 100 complete control
Outline: as §1

pigweed, palmer [7] = assay: Test C preemergence; assay type: in vivo, Amaranthus palmeri; settings: for Pigweed, Palmer plant response rating: 500 g ai/ha, preemergence, 0 to 100 scale (0 no effect, 100 complete control)
Outline: as §1

ragweed [8] = assay: Test C preemergence; assay type: in vivo, Ambrosia artemisiifolia; settings: for Ragweed plant response rating: 500 g ai/ha, preemergence, 0 to 100 scale (0 no effect, 100 complete control); for Plant response rating, Ragweed: Preemergence, 125 g ai/ha, 0 to 100 scale, 0 no effect, 100 complete control
Outline: as §1

ryegrass, Italian [9] = assay: Test C preemergence; assay type: in vivo, Lolium multiflorum; settings: for Ryegrass, Italian plant response rating: 500 g ai/ha, preemergence, 0 to 100 scale (0 no effect, 100 complete control); for Plant response rating, Ryegrass, Italian: Preemergence, 125 g ai/ha, 0 to 100 scale, 0 no effect, 100 complete control
Outline: as §1

soybean [10] = assay: Test C preemergence; assay type: in vivo, Glycine max; settings: for Soybean plant response rating: 500 g ai/ha, preemergence, 0 to 100 scale (0 no effect, 100 complete control); for Plant response rating, Soybean: Preemergence, 125 g ai/ha, 0 to 100 scale, 0 no effect, 100 complete control
Outline: as §1

wheat [11] = assay: Test C preemergence; assay type: in vivo, Triticum aestivum; settings: for Wheat plant response rating: 500 g ai/ha, preemergence, 0 to 100 scale (0 no effect, 100 complete control); for Plant response rating, Wheat: Preemergence, 125 g ai/ha, 0 to 100 scale, 0 no effect, 100 complete control
Outline: as §1

barnyardgrass [12] = assay: Test C postemergence; assay type: in vivo, Echinochloa crusgalli; settings: 10 days, 0 to 100 scale (0 no effect, 100 complete control)
Outline: as §1

blackgrass [13] = assay: Test C postemergence; assay type: in vivo, Alopecurus myosuroides; settings: 10 days, 0 to 100 scale (0 no effect, 100 complete control)
Outline: as §1

corn [14] = assay: Test C postemergence; assay type: in vivo, Zea mays; settings: 10 days, 0 to 100 scale (0 no effect, 100 complete control)
Outline: as §1

green foxtail [15] = assay: Test C postemergence; assay type: in vivo, Setaria viridis; settings: 10 days, 0 to 100 scale (0 no effect, 100 complete control)
Outline: as §1

kochia [16] = assay: Test C postemergence; assay type: in vivo, Bassia scoparia; settings: 10 days, 0 to 100 scale (0 no effect, 100 complete control)
Outline: as §1

oat, wild [17] = assay: Test C postemergence; assay type: in vivo, Avena fatua; settings: 10 days, 0 to 100 scale (0 no effect, 100 complete control)
Outline: as §1

pigweed, palmer [18] = assay: Test C postemergence; assay type: in vivo, Amaranthus palmeri; settings: 10 days, 0 to 100 scale (0 no effect, 100 complete control)
Outline: as §1

ragweed [19] = assay: Test C postemergence; assay type: in vivo, Ambrosia artemisiifolia; settings: 10 days, 0 to 100 scale (0 no effect, 100 complete control)
Outline: as §1

ryegrass, Italian [20] = assay: Test C postemergence; assay type: in vivo, Lolium multiflorum; settings: 10 days, 0 to 100 scale (0 no effect, 100 complete control)
Outline: as §1

soybean [21] = assay: Test C postemergence; assay type: in vivo, Glycine max; settings: 10 days, 0 to 100 scale (0 no effect, 100 complete control)
Outline: as §1

wheat [22] = assay: Test C postemergence; assay type: in vivo, Triticum aestivum; settings: 10 days, 0 to 100 scale (0 no effect, 100 complete control)
Outline: as §1

galium = assay: Test C postemergence; assay type: in vivo, Galium aparine; settings: 10 days, 0 to 100 scale (0 no effect, 100 complete control)
Outline: as §1

horseweed = assay: Test C postemergence; assay type: in vivo, Erigeron canadensis; settings: 10 days, 0 to 100 scale (0 no effect, 100 complete control)
Outline: as §1

barnyardgrass [23] = assay: Test D flooded paddy test; assay type: in vivo, Echinochloa crus-galli; settings: 250 g ai/ha, applied to paddy water, visual rating after 13 to 14 days, scale 0 to 100 (0 no effect, 100 complete control)
Outline: (§2)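 Plants at the 2-leaf stage were grown in pots flooded to 3 cm, and compound was applied directly into the paddy water, with depth kept throughout. After 13–14 days in a greenhouse, injury was rated visually against untreated controls on a 0–100 scale (100 = complete control); a dash means not tested.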

ducksalad = assay: Test D flooded paddy test; assay type: in vivo, Heteranthera limosa; settings: 250 g ai/ha, applied to paddy water, visual rating after 13 to 14 days, scale 0 to 100 (0 no effect, 100 complete control)
Outline: as §2

rice = assay: Test D flooded paddy test; assay type: in vivo, Oryza sativa; settings: 250 g ai/ha, applied to paddy water, visual rating after 13 to 14 days, scale 0 to 100 (0 no effect, 100 complete control)
Outline: as §2

sedge, umbrella = assay: Test D flooded paddy test; assay type: in vivo, Cyperus difformis; settings: 250 g ai/ha, applied to paddy water, visual rating after 13 to 14 days, scale 0 to 100 (0 no effect, 100 complete control)
Outline: as §2

[24] = Preemergence, 125 g ai/ha, 0 to 100 scale, 0 no effect, 100 complete control

Cc1nnc(-c2cccc(C(=O)N3C[C@H](C)Oc4c(Cl)cccc43)c2)o1 [Compound 355]
20: Foxtail, Green plant response rating (green foxtail [4]) | Plant response rating, Foxtail, Green (green foxtail [4]) | Ryegrass, Italian plant response rating (ryegrass, Italian [9]) | Plant response rating, Ryegrass, Italian (ryegrass, Italian [9]) | Plant response rating, Soybean (soybean [10])
0: Barnyardgrass plant response rating (barnyardgrass [1]) | Plant response rating, Barnyardgrass (barnyardgrass [1]) | Blackgrass plant response rating (blackgrass [2]) | Plant response rating, Blackgrass (blackgrass [2]) | Corn plant response rating (corn [3]) | Plant response rating, Corn (corn [3]; [24]) | Kochia plant response rating (kochia [5]) | Plant response rating, Kochia (kochia [5]) | Oat, Wild plant response rating (oat, wild [6]) | Plant response rating, Oat, Wild (oat, wild [6]) | Pigweed, Palmer plant response rating (pigweed, palmer [7]) | Ragweed plant response rating (ragweed [8]) | Plant response rating, Ragweed (ragweed [8]) | Soybean plant response rating (soybean [10]) | Wheat plant response rating (wheat [11]) | Plant response rating, Wheat (wheat [11]) | Plant response rating, Blackgrass (blackgrass [13]; 500 g ai/ha, postemergence) | Plant response rating, Blackgrass (blackgrass [13]; Postemergence, 125 g ai/ha) | Plant response rating, Kochia (kochia [16]; 500 g ai/ha, postemergence) | Plant response rating, Oat, Wild (oat, wild [17]; 500 g ai/ha, postemergence) | Plant response rating, Oat, Wild (oat, wild [17]; Postemergence, 125 g ai/ha) | Plant response rating, Ragweed (ragweed [19]; 500 g ai/ha, postemergence) | Plant response rating, Ryegrass, Italian (ryegrass, Italian [20]; 500 g ai/ha, postemergence) | Plant response rating, Ryegrass, Italian (ryegrass, Italian [20]; Postemergence, 125 g ai/ha) | Plant response rating, Horseweed (horseweed; 500 g ai/ha, postemergence) | Plant response rating, Horseweed (horseweed; Postemergence, 125 g ai/ha) | Plant response rating, Barnyardgrass (Flood) (barnyardgrass [23]) | Plant response rating, Ducksalad (Flood) (ducksalad) | Plant response rating, Rice (Flood) (rice) | Plant response rating, Sedge, Umbrella (Flood) (sedge, umbrella)
10: Plant response rating, Barnyardgrass (barnyardgrass [12]; 500 g ai/ha, postemergence) | Plant response rating, Barnyardgrass (barnyardgrass [12]; Postemergence, 125 g ai/ha) | Plant response rating, Corn (corn [14]; 500 g ai/ha, postemergence) | Plant response rating, Corn (corn [14]; Postemergence, 125 g ai/ha) | Plant response rating, Foxtail, Green (green foxtail [15]; 500 g ai/ha, postemergence) | Plant response rating, Foxtail, Green (green foxtail [15]; Postemergence, 125 g ai/ha) | Plant response rating, Pigweed, Palmer (pigweed, palmer [18]; 500 g ai/ha, postemergence) | Plant response rating, Wheat (wheat [22]; 500 g ai/ha, postemergence) | Plant response rating, Wheat (wheat [22]; Postemergence, 125 g ai/ha) | Plant response rating, Galium (galium; 500 g ai/ha, postemergence)
50: Plant response rating, Soybean (soybean [21]; 500 g ai/ha, postemergence)

Cc1ncn(-c2ccc(F)c(C(=S)N3C[C@H](C)Oc4c(C)cccc43)c2)n1 [Compound 362]
50: Plant response rating, Blackgrass (blackgrass [2]) | Plant response rating, Soybean (soybean [10]) | Plant response rating, Ragweed (ragweed [19]; Postemergence, 125 g ai/ha) | Plant response rating, Ducksalad (Flood) (ducksalad)
30: Plant response rating, Corn (corn [14]; Postemergence, 125 g ai/ha) | Plant response rating, Oat, Wild (oat, wild [17]; Postemergence, 125 g ai/ha) | Plant response rating, Pigweed, Palmer (pigweed, palmer [18]; Postemergence, 125 g ai/ha)
25: Plant response rating, Rice (Flood) (rice)
35: Plant response rating, Barnyardgrass (Flood) (barnyardgrass [23])
0: Plant response rating, Oat, Wild (oat, wild [6]) | Plant response rating, Horseweed (horseweed; Postemergence, 125 g ai/ha)
10: Plant response rating, Wheat (wheat [11]) | Plant response rating, Horseweed (horseweed; 500 g ai/ha, postemergence)
40: Wheat plant response rating (wheat [11]) | Plant response rating, Corn (corn [14]; 500 g ai/ha, postemergence) | Plant response rating, Wheat (wheat [22]; Postemergence, 125 g ai/ha)
80: Plant response rating, Barnyardgrass (barnyardgrass [1]) | Blackgrass plant response rating (blackgrass [2]) | Kochia plant response rating (kochia [5]) | Plant response rating, Ryegrass, Italian (ryegrass, Italian [9]) | Plant response rating, Kochia (kochia [16]; Postemergence, 125 g ai/ha) | Plant response rating, Pigweed, Palmer (pigweed, palmer [18]; 500 g ai/ha, postemergence) | Plant response rating, Ryegrass, Italian (ryegrass, Italian [20]; Postemergence, 125 g ai/ha)
100: Barnyardgrass plant response rating (barnyardgrass [1]) | Foxtail, Green plant response rating (green foxtail [4]) | Plant response rating, Foxtail, Green (green foxtail [4]) | Pigweed, Palmer plant response rating (pigweed, palmer [7]) | Plant response rating, Soybean (soybean [21]; 500 g ai/ha, postemergence) | Plant response rating, Soybean (soybean [21]; Postemergence, 125 g ai/ha) | Plant response rating, Galium (galium; 500 g ai/ha, postemergence) | Plant response rating, Galium (galium; Postemergence, 125 g ai/ha)
90: Plant response rating, Pigweed, Palmer (pigweed, palmer [7]; [24]) | Ryegrass, Italian plant response rating (ryegrass, Italian [9]) | Plant response rating, Barnyardgrass (barnyardgrass [12]; 500 g ai/ha, postemergence) | Plant response rating, Blackgrass (blackgrass [13]; 500 g ai/ha, postemergence) | Plant response rating, Foxtail, Green (green foxtail [15]; 500 g ai/ha, postemergence) | Plant response rating, Kochia (kochia [16]; 500 g ai/ha, postemergence) | Plant response rating, Ryegrass, Italian (ryegrass, Italian [20]; 500 g ai/ha, postemergence)
60: Ragweed plant response rating (ragweed [8]) | Plant response rating, Barnyardgrass (barnyardgrass [12]; Postemergence, 125 g ai/ha) | Plant response rating, Oat, Wild (oat, wild [17]; 500 g ai/ha, postemergence) | Plant response rating, Ragweed (ragweed [19]; 500 g ai/ha, postemergence) | Plant response rating, Wheat (wheat [22]; 500 g ai/ha, postemergence)
70: Plant response rating, Kochia (kochia [5]) | Oat, Wild plant response rating (oat, wild [6]) | Soybean plant response rating (soybean [10]) | Plant response rating, Blackgrass (blackgrass [13]; Postemergence, 125 g ai/ha) | Plant response rating, Foxtail, Green (green foxtail [15]; Postemergence, 125 g ai/ha)
20: Corn plant response rating (corn [3]) | Plant response rating, Ragweed (ragweed [8])
95: Plant response rating, Sedge, Umbrella (Flood) (sedge, umbrella)
